Biological target: T1, Cys12 of the KRAS 4B G12C protein (Homo sapiens, UniProt P01116, G12C)
T1 construct: This protein contained 188 amino acids in total, including an N-terminal 6-Histidine tag; made in house; host or cells: E. coli BL21
Test: In vitro covalent adduct formation (CAF) assay, LC-MS intact mass
Assay type: binding
Details: 10 uM compound, 60 min
In short: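 GDP-loaded (>95%) His-TEV-tagged KRAS 4B G12C (residues 1–169), 5 μM in TBS pH 7.4, incubated with 10 μM compound (4% DMSO) at 22° C for one hour. Intact-protein LC-MS gave free:adduct ratios, reported as percent protein modified; duplicate runs.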

% CAF 10 uM @ 60 min [%] | SMILES
82 | [2H]C([2H])=C([2H])C(=O)N1C[C@H](C)N(c2nc(=O)n3c4c(c(-c5cc(Cl)c(F)cc5F)c(C(F)(F)F)cc24)SCC2(COC2)C3)C[C@H]1C (atropisomer, axis not shown) [Example 1434, (R)-8′-((2S,5R)-4-(Acryloyl-d3)-2,5-dimethylpiperazin-1-yl)-11′-(5-chloro-2,4-difluorophenyl)-10′-(trifluoromethyl)-2′H,4′H,6′H-spiro[oxetane-3,3′-[1,4]thiazepino[2,3,4-ij]quinazolin]-6′-one]
95.3 | C=CC(=O)N1[C@H](C)CN(c2nc(=O)n3c4c(c(-c5cc(Cl)c(F)cc5F)c(C(F)(F)F)cc24)SCC(COC)(COC)C3)C[C@@H]1C [Example 1410, 8-((3S,5R)-4-acryloyl-3,5-dimethylpiperazin-1-yl)-11-(5-chloro-2,4-difluorophenyl)-3,3-bis(methoxymethyl)-10-(trifluoromethyl)-3,4-dihydro-2H,6H-[1,4]thiazepino[2,3,4-ij]quinazolin-6-one]
99.2 | C=CC(=O)N1CCN(c2nc(=O)n3c4c(c(-c5cc(Cl)c(F)cc5F)c(C(F)(F)F)cc24)SC[C@@H]3CN2CCN(C3CC3)CC2)CC1 (atropisomer, axis not shown) [Example 1355, (3S,10R)-7-(4-acryloylpiperazin-1-yl)-10-(5-chloro-2,4-difluorophenyl)-3-((4-cyclopropylpiperazin-1-yl)methyl)-9-(trifluoromethyl)-2,3-dihydro-5H-[1,4]thiazino[2,3,4-ij]quinazolin-5-one]
96.8 | C=CC(=O)N1[C@H](C)CN(c2nc(=O)n3c4c(c(-c5ccc(F)cc5F)c(Cl)cc24)SC[C@@H]3COC)C[C@@H]1C [Example 1343a, (3S)-7-((3S,5R)-4-acryloyl-3,5-dimethylpiperazin-1-yl)-9-chloro-10-(2,4-difluorophenyl)-3-(methoxymethyl)-2,3-dihydro-5H-[1,4]thiazino[2,3,4-ij]quinazolin-5-one]
99 | C=CC(=O)N1CCN(c2nc(=O)n3c4c(c(-c5cc(Cl)c(F)cc5F)c(C(F)(F)F)cc24)SC[C@@H]3CN2CCN(CC)CC2)CC1 (atropisomer, axis not shown) [Example 1338, (3S,10R)-7-(4-acryloylpiperazin-1-yl)-10-(5-chloro-2,4-difluorophenyl)-3-((4-ethylpiperazin-1-yl)methyl)-9-(trifluoromethyl)-2,3-dihydro-5H-[1,4]thiazino[2,3,4-ij]quinazolin-5-one]
95.4 | [2H]C([2H])([2H])OC[C@H]1CSc2c(-c3ccc(F)cc3F)c(C(F)(F)F)cc3c(N4C[C@@H](C)N(C(=O)C=C)[C@@H](C)C4)nc(=O)n1c23 (atropisomer, axis not shown) [Example 1424, (3S,10S)-7-((3S,5R)-4-acryloyl-3,5-dimethylpiperazin-1-yl)-10-(2,4-difluorophenyl)-3-((methoxy-d3)methyl)-9-(trifluoromethyl)-2,3-dihydro-5H-[1,4]thiazino[2,3,4-ij]quinazolin-5-one]
90 | C=CC(=O)N1[C@H](C)CN(c2nc(=O)n3c4c(c(-c5cc(O)c(F)cc5F)c(C(F)(F)F)cc24)SC[C@@H]3COC)C[C@@H]1C [Example 1444, (3S)-7-((3S,5R)-4-acryloyl-3,5-dimethylpiperazin-1-yl)-10-(2,4-difluoro-5-hydroxyphenyl)-3-(methoxymethyl)-9-(trifluoromethyl)-2,3-dihydro-5H-[1,4]thiazino[2,3,4-ij]quinazolin-5-one]

Same assay, conditions: 10 uM compound, 60 min incubation

% CAF 10 uM @ 60 min [%] | SMILES
98.2 | C=CC(=O)N1CCN(c2nc(=O)n3c4c(c(-c5ccc(F)cc5)c(C(F)(F)F)cc24)SC[C@@H]3COC)CC1 [Example 1106, (S)-7-(4-acryloylpiperazin-1-yl)-10-(4-fluorophenyl)-3-(methoxymethyl)-9-(trifluoromethyl)-2,3-dihydro-5H-[1,4]thiazino[2,3,4-ij]quinazolin-5-one]
95.3 | C=CC(=O)N1CCN(c2nc(=O)n3c4c(c(-c5ccc(F)cc5F)c(C(F)(F)F)cc24)SCC2(COC2)C3)CC1 (atropisomer, axis not shown) [Example 1127, (R)-8′-(4-acryloylpiperazin-1-yl)-11′-(2,4-difluorophenyl)-10′-(trifluoromethyl)-2′H,4′H,6′H-spiro[oxetane-3,3′-[1,4]thiazepino [2,3,4-ij]quinazolin]-6′-one]
93 | C=CC(=O)N1C[C@H](C)N(c2nc(=O)n3c4c(c(-c5ccc(F)cc5F)c(C(F)(F)F)cc24)SCC2(COC2)C3)C[C@H]1C (atropisomer, axis not shown) [Example 1109, (S)-8′-((2S,5R)-4-acryloyl-2,5-dimethylpiperazin-1-yl)-11′-(2,4-difluorophenyl)-10′-(trifluoromethyl)-2′H,4′H,6′H-spiro[oxetane-3,3′-[1,4]thiazepino [2,3,4-ij]quinazolin]-6′-one]

Same assay, conditions: 10 μM compound, after 1 hour

CAF (% after 1 hour) [%] | SMILES
95 | C=CC(=O)N1[C@H](C)CN(c2nc(=O)n3c4c(c(-c5nc(C(F)(F)F)cs5)c(C(F)(F)F)cc24)SC[C@@H](OC)C3)C[C@@H]1C [Example 1208, (S)-8-((3S,5R)-4-acryloyl-3,5-dimethylpiperazin-1-yl)-3-methoxy-10-(trifluoromethyl)-11-(4-(trifluoromethyl)thiazol-2-yl)-3,4-dihydro-2H,6H-[1,4]thiazepino[2,3,4-ij]quinazolin-6-one]
96 | C=CC(=O)N1C[C@H](C)N(c2nc(=O)n3c4c(c(-c5ccc(F)c(Cl)c5)c(C(F)(F)F)cc24)SC[C@@H](OC)C3)C[C@H]1C [Example 1201, (S)-8-((2S,5R)-4-acryloyl-2,5-dimethylpiperazin-1-yl)-11-(3-chloro-4-fluorophenyl)-3-methoxy-10-(trifluoromethyl)-3,4-dihydro-2H,6H-[1,4]thiazepino[2,3,4-ij]quinazolin-6-one]
95 | C=CC(=O)N1[C@H](C)CN(c2nc(=O)n3c4c(c(-c5ccc(F)cn5)c(C(F)(F)F)cc24)SC[C@@H](OC)C3)C[C@@H]1C [Example 1207, (S)-8-((3S,5R)-4-acryloyl-3,5-dimethylpiperazin-1-yl)-11-(5-fluoropyridin-2-yl)-3-methoxy-10-(trifluoromethyl)-3,4-dihydro-2H,6H-[1,4]thiazepino[2,3,4-ij]quinazolin-6-one]
95 | C=CC(=O)N1[C@H](C)CN(c2nc(=O)n3c4c(c(-c5ncc(F)cc5F)c(C(F)(F)F)cc24)SC[C@@H](OC)C3)C[C@@H]1C [Example 1225, (3S)-8-((3S,5R)-4-Acryloyl-3,5-dimethylpiperazin-1-yl)-11-(3,5-difluoropyridin-2-yl)-3-methoxy-10-(trifluoromethyl)-3,4-dihydro-2H,6H-[1,4]thiazepino[2,3,4-ij]quinazolin-6-one]
64 | C=C(F)C(=O)N1CCN(c2nc(=O)n3c4c(c(-c5cc(Cl)c(F)cc5F)c(C(F)(F)F)cc24)SC[C@@H](OC)C3)CC1 [Example 1219, (3S)-11-(5-Chloro-2,4-difluorophenyl)-8-(4-(2-fluoroacryloyl)piperazin-1-yl)-3-methoxy-10-(trifluoromethyl)-3,4-dihydro-2H,6H-[1,4]thiazepino[2,3,4-ij]quinazolin-6-one]

Same assay, conditions: after 60 min

CAF (% binding after 60 min) [%] | SMILES
96 | C=CC(=O)N1[C@H](C)CN(c2nc(=O)n3c4c(c(-c5ccc(F)cc5)c(C(F)(F)F)cc24)SC[C@H](OCOC)C3)C[C@@H]1C [Example 1009, (R)-8-((3S,5R)-4-acryloyl-3,5-dimethylpiperazin-1-yl)-11-(4-fluorophenyl)-3-(methoxymethoxy)-10-(trifluoromethyl)-3,4-dihydro-2H,6H-[1,4]thiazepino[2,3,4-ij]quinazolin-6-one]
97 | C=CC(=O)N1[C@H](C)CN(c2nc(=O)n3c4c(c(-c5ccc(F)cc5)c(C(F)(F)F)cc24)SC[C@H](OCCOC)C3)C[C@@H]1C [Example 1024, (R)-8-((3S,5R)-4-acryloyl-3,5-dimethylpiperazin-1-yl)-11-(4-fluorophenyl)-3-(2-methoxyethoxy)-10-(trifluoromethyl)-3,4-dihydro-2H,6H-[1,4]thiazepino[2,3,4-ij]quinazolin-6-one]
84 | C=CC(=O)N1[C@H](C)CN(c2nc(=O)n3c4c(c(-c5cc(Cl)c(F)cc5F)c(C(F)(F)F)cc24)SC[C@@H](OCOC)C3)C[C@@H]1C [Example 1015, (3S)-8-((3S,5R)-4-acryloyl-3,5-dimethylpiperazin-1-yl)-11-(5-chloro-2,4-difluorophenyl)-3-(methoxymethoxy)-10-(trifluoromethyl)-3,4-dihydro-2H,6H-[1,4]thiazepino[2,3,4-ij]quinazolin-6-one]
95 | C=CC(=O)N1[C@H](C)CN(c2nc(=O)n3c4c(c(-c5cc(Cl)c(F)cc5F)c(C(F)(F)F)cc24)SC[C@@H](OCCOC)C3)C[C@@H]1C [Example 1031, (3S)-8-((3S,5R)-4-acryloyl-3,5-dimethylpiperazin-1-yl)-11-(5-chloro-2,4-difluorophenyl)-3-(2-methoxyethoxy)-10-(trifluoromethyl)-3,4-dihydro-2H,6H-[1,4]thiazepino[2,3,4-ij]quinazolin-6-one]
97 | C=CC(=O)N1CCN(c2nc(=O)n3c4c(c(-c5ccc(F)cc5F)c(C(F)(F)F)cc24)SC[C@@H](OCCOC)C3)CC1 [Example 1019, (3S)-8-(4-acryloylpiperazin-1-yl)-11-(2,4-difluorophenyl)-3-(2-methoxyethoxy)-10-(trifluoromethyl)-3,4-dihydro-2H,6H-[1,4]thiazepino[2,3,4-ij]quinazolin-6-one]
